Target: CDK2 (human) (UniProt P24941)
Assay: Enzyme Assay

Question: Which Ki does the source give for `O=c1[nH][nH]c2cc(SC3COCC(Nc4cc(C5CC5)[nH]n4)C3)ccc12` (stereo not given) here?
Answer: < 1000 nM

Question: Which Ki does the source give for `O=c1[nH][nH]c2cc(OCCONc3nccnn3)ccc12` here?
Answer: < 1000 nM

Question: Which Ki does the source give for `O=C(CCNc1cc(C2CC2)[nH]n1)Nc1ccc2c(=O)[nH][nH]c2c1` here?
Answer: < 1000 nM

Question: `O=c1[nH][nH]c2cc(Nc3cc4ccccc4c(Nc4cc(C5CC5)[nH]n4)n3)ccc12` was tested. Which Ki did it give?
Answer: < 1000 nM

Question: With `O=c1[nH][nH]c2cc(SC3CCCC(Nc4ccccn4)C3)ccc12` (stereo not given) as the compound, how does the Ki read?
Answer: < 1000 nM

Question: Which Ki does the source give for `Cc1nc(Nc2cc(-c3ccncc3)nc(-c3ccc4[nH][nH]c(=O)c4c3C(F)(F)F)n2)n[nH]1` here?
Answer: < 1000 nM

Question: `O=c1[nH][nH]c2cc(Nc3ccc([N+](=O)[O-])c(Nc4ncn[nH]4)n3)ccc12` was tested. Which Ki did it give?
Answer: < 1000 nM

Question: For `CCc1cc(Nc2cc(C)[nH]n2)nc(CSc2ccc3[nH][nH]c(=O)c3c2)n1`, which Ki is on record?
Answer: < 1000 nM

Question: How did the Ki turn out when `Cn1cnc(NC(=O)CC(=O)Nc2ccc3c(=O)[nH][nH]c3c2)c1` was run?
Answer: < 1000 nM

Question: How did the Ki turn out when `Cc1cc(Nc2nc([C@@H]3C[C@H]3c3ccc4c(=O)[nH][nH]c4c3)nc3ccccc23)n[nH]1` was run?
Answer: < 1000 nM

Question: Which Ki does the source give for `Cn1cnc(NC(CCSc2ccc3c(=O)[nH][nH]c3c2)c2ccccc2)c1` (stereo not given) here?
Answer: < 1000 nM

Question: `O=c1[nH][nH]c2cc(SC3CCCC(Nc4nccnn4)C3)ccc12` (stereo not given) was tested. Which Ki did it give?
Answer: < 1000 nM

Question: With `Cc1cnc(NCCCNc2ccc3c(=O)[nH][nH]c3c2)s1` as the compound, how does the Ki read?
Answer: < 1000 nM

Question: Which Ki does the source give for `O=C(CCOc1ccc2c(=O)[nH][nH]c2c1)Nc1nccnn1` here?
Answer: < 1000 nM

Question: With `O=c1[nH][nH]c2cc(NC3CCC(Nc4nccnn4)C3)ccc12` (stereo not given) as the compound, how does the Ki read?
Answer: < 1000 nM

Question: How did the Ki turn out when `Cc1cnc(NC(CCSc2ccc3c(=O)[nH][nH]c3c2)c2ccccc2)s1` (stereo not given) was run?
Answer: < 1000 nM

Question: How did the Ki turn out when `O=c1[nH][nH]c2cc(OCCC(Nc3cc(C4CC4)[nH]n3)c3ccccc3)ccc12` (stereo not given) was run?
Answer: < 1000 nM

Question: Which Ki does the source give for `O=c1[nH][nH]c2ccc(Nc3nc(Nc4cc(C5CC5)[nH]n4)c4ccccc4n3)cc12` here?
Answer: < 1000 nM

Question: Which Ki does the source give for `COCCNc1cc(Nc2cc(C)[nH]n2)nc(SCc2ccc3[nH][nH]c(=O)c3c2)n1` here?
Answer: < 1000 nM

Question: Which Ki does the source give for `Cc1cnc(NCCC(Cc2ccccc2)Sc2ccc3c(=O)[nH][nH]c3c2)s1` (stereo not given) here?
Answer: < 1000 nM

Question: Which Ki does the source give for `COC(C)(C)c1cc(Nc2cc(C3CC3)[nH]n2)nc(Sc2ccc3c(=O)[nH][nH]c3c2)n1` here?
Answer: < 1000 nM

Question: Which Ki does the source give for `Cc1cnc(NC2CCC(Oc3ccc4c(=O)[nH][nH]c4c3)C2)s1` (stereo not given) here?
Answer: < 1000 nM

Question: For `O=c1[nH][nH]c2cc(C(F)(F)F)c(-c3cc(Nc4n[nH]c(C5CC5)n4)c4ccccc4n3)cc12`, which Ki is on record?
Answer: < 1000 nM

Question: `Cc1cc(Nc2cc(-c3ccccc3C)nc(Oc3ccc4c(=O)[nH][nH]c4c3)n2)n[nH]1` was tested. Which Ki did it give?
Answer: < 1000 nM

Question: How did the Ki turn out when `Cc1cc(Nc2cc(C)[nH]n2)nc(C(C)(C)c2ccc3c(=O)[nH][nH]c3c2)n1` was run?
Answer: < 1000 nM

Question: How did the Ki turn out when `O=C(NC1CC1)c1cc(Nc2nc(-c3ccc4[nH][nH]c(=O)c4c3)nc3ccccc23)n[nH]1` was run?
Answer: < 1000 nM

Question: Which Ki does the source give for `Cc1cnc(NCCCCc2ccc3c(=O)[nH][nH]c3c2)s1` here?
Answer: < 1000 nM

Question: With `O=c1[nH][nH]c2cc(Nc3nc(Nc4cc(C5CC5)[nH]n4)c4cc(N5CCCCC5)ccc4n3)ccc12` as the compound, how does the Ki read?
Answer: < 1000 nM

Question: With `Cc1cc(Nc2cc(COCCN(C)C)nc(Sc3ccc4c(=O)[nH][nH]c4c3)n2)n[nH]1` as the compound, how does the Ki read?
Answer: < 1000 nM

Question: For `O=c1[nH][nH]c2cc(Nc3nc(Nc4n[nH]c5cccc(F)c45)c4ccccc4n3)ccc12`, which Ki is on record?
Answer: < 1000 nM

Question: Which Ki does the source give for `Cc1cccc2c(Nc3cc(-c4ccccc4)[nH]n3)nc(-c3ccc4[nH][nH]c(=O)c4c3OC(F)(F)F)nc12` here?
Answer: < 1000 nM

Question: For `O=c1[nH][nH]c2cc(C(F)(F)F)c(-c3cc(Nc4n[nH]c5ccccc45)cc(C4CCCCC4)n3)cc12`, which Ki is on record?
Answer: < 1000 nM

Question: How did the Ki turn out when `Cc1cc(Nc2cc(C3CC3)[nH]n2)nc(Nc2ccc3c(=O)[nH][nH]c3c2)n1` was run?
Answer: < 1000 nM

Question: Which Ki does the source give for `O=c1[nH][nH]c2cc(NCCC(Nc3cc(C4CC4)[nH]n3)c3ccccc3)ccc12` (stereo not given) here?
Answer: < 1000 nM

Question: How did the Ki turn out when `O=c1[nH][nH]c2ccc(C3CCCC(Nc4cc(C5CC5)[nH]n4)C3)cc12` (stereo not given) was run?
Answer: < 1000 nM

Question: Which Ki does the source give for `Cn1cnc(NCCC(Cc2ccccc2)Sc2ccc3c(=O)[nH][nH]c3c2)c1` (stereo not given) here?
Answer: < 1000 nM

Question: `O=C(CC(=O)Oc1ccc2c(=O)[nH][nH]c2c1)Nc1cc(C2CC2)[nH]n1` was tested. Which Ki did it give?
Answer: < 1000 nM

Question: How did the Ki turn out when `Cn1cnc(NC2CCC(COCc3ccc4c(=O)[nH][nH]c4c3)C2)c1` (stereo not given) was run?
Answer: < 1000 nM

Question: `O=C(CCNc1nccnn1)Oc1ccc2c(=O)[nH][nH]c2c1` was tested. Which Ki did it give?
Answer: < 1000 nM

Question: Which Ki does the source give for `Cn1cnc(NC(CCCc2ccc3c(=O)[nH][nH]c3c2)c2ccccc2)c1` (stereo not given) here?
Answer: < 1000 nM

Question: `CCc1cc(Nc2nc(Nc3ccc4c(=O)[nH][nH]c4c3)nc3ccc(-c4ccccc4)cc23)n[nH]1` was tested. Which Ki did it give?
Answer: < 1000 nM

Question: With `O=C(CC(=O)Nc1ccccn1)Nc1ccc2c(=O)[nH][nH]c2c1` as the compound, how does the Ki read?
Answer: < 1000 nM

Question: With `Cc1cc(Nc2cc(-c3ccccc3)nc(Sc3ccc4c(=O)[nH][nH]c4c3)n2)n[nH]1` as the compound, how does the Ki read?
Answer: < 1000 nM

Question: Which Ki does the source give for `O=c1[nH][nH]c2cc(NCC3CCCC3Nc3nccnn3)ccc12` (stereo not given) here?
Answer: < 1000 nM

Question: How did the Ki turn out when `O=c1[nH][nH]c2cc(SCC3CCCC3Nc3nccnn3)ccc12` (stereo not given) was run?
Answer: < 1000 nM

Question: With `Cc1cnc(NC2COCC(Nc3ccc4c(=O)[nH][nH]c4c3)C2)s1` (stereo not given) as the compound, how does the Ki read?
Answer: < 1000 nM

Question: `O=c1[nH][nH]c2cc(NC3COCC(Nc4cc(C5CC5)[nH]n4)C3)ccc12` (stereo not given) was tested. Which Ki did it give?
Answer: < 1000 nM

Question: `COc1ccc2c(Nc3cc(C)[nH]n3)nc(Sc3ccc4c(=O)[nH][nH]c4c3)nc2c1` was tested. Which Ki did it give?
Answer: < 1000 nM

Question: For `Cc1cc(Nc2cc(-c3cc4c(=O)[nH][nH]c4cc3C(F)(F)F)nc(N3CCNCC3)c2)n[nH]1`, which Ki is on record?
Answer: < 1000 nM

Question: With `Cc1cc(Nc2nc(Nc3ccc4c(=O)[nH][nH]c4c3)nc3c2CCCC3)n[nH]1` as the compound, how does the Ki read?
Answer: < 1000 nM

Question: For `Cc1cc(Nc2cc(C3CC3)[nH]n2)nc(Oc2ccc3c(=O)[nH][nH]c3c2)n1`, which Ki is on record?
Answer: < 1000 nM

Question: `Cc1cc(Nc2cc(-c3c(C)cccc3C)nc(Oc3ccc4c(=O)[nH][nH]c4c3)n2)n[nH]1` was tested. Which Ki did it give?
Answer: < 1000 nM

Question: For `O=c1[nH][nH]c2cc(Nc3ccc([N+](=O)[O-])c(Nc4cc(C5CC5)[nH]n4)n3)ccc12`, which Ki is on record?
Answer: < 1000 nM

Question: For `O=c1[nH][nH]c2cc(COc3cc(Nc4n[nH]c5ccccc45)c4ccccc4n3)ccc12`, which Ki is on record?
Answer: < 1000 nM

Question: With `COc1ccc(-c2cc(Nc3cc(C)[nH]n3)nc(Sc3ccc4c(=O)[nH][nH]c4c3)n2)cc1` as the compound, how does the Ki read?
Answer: < 1000 nM

Question: How did the Ki turn out when `O=c1[nH][nH]c2ccc(-c3cnnc(Nc4cc(C5CCCC5)[nH]n4)n3)cc12` was run?
Answer: < 1000 nM

Question: Which Ki does the source give for `COCCNc1cc(Nc2cc(C)[nH]n2)nc(SCc2ccc3c(=O)[nH][nH]c3c2)n1` here?
Answer: < 1000 nM

Question: With `Cc1cnc(NC2COCC(Oc3ccc4c(=O)[nH][nH]c4c3)C2)s1` (stereo not given) as the compound, how does the Ki read?
Answer: < 1000 nM

Question: For `O=c1[nH][nH]c2cc(NC3CCC(Nc4ccccn4)C3)ccc12` (stereo not given), which Ki is on record?
Answer: < 1000 nM

Question: How did the Ki turn out when `Cn1cnc(NCCCCc2ccc3c(=O)[nH][nH]c3c2)c1` was run?
Answer: < 1000 nM

Question: For `CN1CCN(c2cc(Nc3cc(C4CC4)[nH]n3)nc(Oc3ccc4c(=O)[nH][nH]c4c3)n2)CC1`, which Ki is on record?
Answer: < 1000 nM

Question: Which Ki does the source give for `Cc1cc(Nc2cc(N3CCCC3)nc(SCc3ccc4c(=O)[nH][nH]c4c3)n2)n[nH]1` here?
Answer: < 1000 nM

Question: `CCc1cc(Nc2nc(Nc3ccc4c(=O)[nH][nH]c4c3)nc3ccccc23)n[nH]1` was tested. Which Ki did it give?
Answer: < 1000 nM

Question: How did the Ki turn out when `Cc1cc(Nc2cc(-c3ccc(OCCCN(C)C)cc3)nc(Sc3ccc4c(=O)[nH][nH]c4c3)n2)n[nH]1` was run?
Answer: < 1000 nM

Question: For `O=c1[nH][nH]c2cc(CCCONc3nccnn3)ccc12`, which Ki is on record?
Answer: < 1000 nM

Question: Which Ki does the source give for `Cc1cc(Nc2nc(Sc3ccc4c(=O)[nH][nH]c4c3)nc3c(O)cccc23)n[nH]1` here?
Answer: < 1000 nM

Question: With `CC(=O)NC1CCC(c2nc(-c3cc4c(=O)[nH][nH]c4cc3C(F)(F)F)nc(Nc3n[nH]c4ccccc34)c2C)CC1` (stereo not given) as the compound, how does the Ki read?
Answer: < 1000 nM

Question: With `O=c1[nH][nH]c2cc(NCCC(Nc3nccnn3)c3ccccc3)ccc12` (stereo not given) as the compound, how does the Ki read?
Answer: < 1000 nM

Question: Which Ki does the source give for `O=c1[nH][nH]c2cc(SC3CCC(Nc4cc(C5CC5)[nH]n4)C3)ccc12` (stereo not given) here?
Answer: < 1000 nM

Question: With `Cc1cc(Nc2cc(C(=O)N3CCN(C)CC3)nc(Sc3ccc4c(=O)[nH][nH]c4c3)n2)n[nH]1` as the compound, how does the Ki read?
Answer: < 1000 nM

Reference: the Kinase Knowledgebase extract (Sharma et al. 2016)
